Consider 1 compound from US20250170089A1, “ANTIMICROBIAL AMINO ESTERS” (THE HONG KONG POLYTECHNIC UNIVERSITY, priority 2023, published 2025).

Series [1] is described as follows: Dynamic light scattering (DLS) and zeta-potential of self-assembled nanoparticles. It is filed as physicochemical. An excerpt:
The dynamic light scattering (DLS) and zeta-potential indicate that […] assembles into nanoparticles with an average size of around 50-200 nm (FIG. 5) and the surface potential of the generated nanoparticle can be +2.15 mV, which means the nanoparticle is positive charged and the hydrophilic -NH2 groups are probably distributed on the outer surfaces.

Another series deals with microbes. Kind of series: Rapid bactericidal test (shaking method, ASTM E2149 13a). It is filed as cell-based. The conditions noted are these: Ala12 diluted to 10 mg/mL with phosphate buffer, contact time 10 mins. On the procedure: The Ala12 was diluted to 10 mg/mL with phosphate buffer. The shaking method (see the ASTM standard E2149 13a 2015) was used to detect their antibacterial activity, wherein the PBS group was used as a blank control. The contact time of bacteria treated with Ala12 is 10 mins.

Series [2] in a line: Skin irritation according to ISO 10993-10:2010. To be noted: concentration as high as 3.9 mg/mL.
The subject of another series is Candida albicans. Kind of series: MIC against fungi (Candida albicans). It is filed as cell-based.
Series [3] can be described thus: Skin sensitization according to ISO 10993-10:2010. To be noted: concentration as high as 3.9 mg/mL.
For series [4], the system named is methicillin-resistant Staphylococcus aureus (MRSA). Kind of series: MIC against methicillin-resistant Staphylococcus aureus. It is filed as cell-based.

Consider `CCCCCCCCCCCCOC(=O)C(C)N` (stereo not shown) [Ala12], for which the “surface potential of the generated nanoparticle (zeta-potential)” value in series [1] is on record as “+2.15 mV”. Moreover, the “average size of nanoparticles” value in series [1] (DLS, FIG. 5) was 50-200 nm. Besides, the “time within which the amino ester kills microbes” value with microbes was ≤ 10 min. The skin irritation result in series [2] is listed as “completely free”. The MIC (against Candida albicans; in series [4]) was 390 μg/m each time. Moreover, in series [3], the skin sensitization entry is “completely free”.
